Source: US10144762B2, “Antibacterial antisense oligonucleotide and method” (priority 2005, dated 2018)
In brackets after ≈: the same amount, converted by molar mass. Several values for one entry are separate records, joined by “and”; a condition that tells them apart may be missing. Identical values can stand only once. Like-named read-outs stand apart in the source and are kept apart here.

What was measured:
E. coli W3110 [1] = assay: MIC, broth microdilution method of the Clinical and Laboratory Standards Institute; assay type: cell-based; conditions: Escherichia coli, read-out: minimum inhibitory concentration (MIC)
E. coli W3110 [2] = assay: E. coli W3110 pure culture, CFU/ml and dose-response; assay type: cell-based
luciferase transcript [3] = test system: luciferase transcript; set-up: species or system firefly; conditions: in vivo
luciferase transcript [4] = assay: Western blot of luciferase protein normalized to OmpA in peritoneal lavage bacteria; assay type: in vivo, firefly; set-up: Western Blot % Inhibition (luciferase protein): concentration or dose not given beside the values; conditions: for Western Blot % Inhibition (luciferase protein): compared to nonsense PMO-treated mice; for Western Blot Luc/OmpA Mean: n = 7-8
[5] = test system: E. coli AS19 (pT7myc-luc); assay type: in vivo; conditions: mice; for CFU/ml (×10^6): peritoneal lavage
E. coli AS19 = assay type: cell-based

| Compound | MIC (E. coli W3110 [1]) [µM] | antibacterial activity (CFU/ml after 8 hours) (E. coli W3110 [2]; E. coli W3110 (FIG. 13)) | IC50 (E. coli W3110 [2]; Escherichia coli, E. coli W3110 pure culture (FIG. 14), read-out: IC50 (50% inhibitory concentration)) [µM] | Luciferase Activity % Inhibition (luciferase transcript [3]) | Luciferase Activity RLU/CFU Mean (luciferase transcript [3]) | Western Blot % Inhibition (luciferase protein) (luciferase transcript [4]; 13 h) [%] | Western Blot Luc/OmpA Mean (luciferase transcript [4]; 13 h after treatment) | Western Blot % Inhibition (luciferase protein) (luciferase transcript [4]; 22 h) [%] | Western Blot % Inhibition (luciferase protein) (luciferase transcript [4]; 22 h, listed as luc PMO) [%] | Western Blot Luc/OmpA Mean (luciferase transcript [4]; 22 h after treatment) | CFU/ml (×10^6) ([5]; 13 h after treatment) | CFU/ml (×10^6) ([5]; 22 h after treatment) | inhibition of growth compared to nonsense PMO treatment ([5]; treated at 0 and 13 hours post-infection) | growth monitored by optical density (E. coli AS19) | viable cells (CFU/ml) (E. coli AS19) |
| --- | --- | --- | --- | --- | --- | --- | --- | --- | --- | --- | --- | --- | --- | --- | --- |
| CC1(C)S[C@@H]2[C@H](NC(=O)[C@H](N)c3ccccc3)C(=O)N2[C@H]1C(=O)O [ampicillin] | 10 (≈ 3.49 µg/mL) | showed antibacterial activity | 7.7 | – | – | – | – | – | – | – | – | – | – | – | – |
| Luc: PMO complementary to the region around the start codon of the luciferase transcript, ACG TTG AGG C, SEQ ID NO 77 (antisense ACGTTGAGGC; all phosphorodiamidate morpholino (PMO)) | – | – | – | 53% and 46% | 3.20 RLU/CFU and 2.90 RLU/CFU | 68 | 0.122 | 57 | 47 | 0.147 | 6.3 ×10^6 CFU/ml | 0.96 ×10^6 CFU/ml | no inhibition of growth | – | – |
| Nonsense: nonsense PMO control for luc PMO, TCC ACT TGC C, SEQ ID NO 78 (TCCACTTGCC; all phosphorodiamidate morpholino (PMO)) [reference compound] | – | – | – | – | 6.19 RLU/CFU and 8.12* RLU/CFU | 0 | 0.382 | 0 | – | 0.339 | 4.3 ×10^6 CFU/ml | 0.39 ×10^6 CFU/ml | – | – | – |
| PMO 62-4: acpP-14mer PMO, TC GAT AGT GCT CAT, SEQ ID NO 65 (antisense TCGATAGTGCTCAT; all phosphorodiamidate morpholino (PMO)) | – | – | – | – | – | – | – | – | – | – | – | – | – | statistically insignificant inhibitions | significantly reduced |
